Measurements taken from publication PMC4990184, “The Tp0684 (MglB-2) Lipoprotein of Treponema pallidum: A Glucose-Binding Protein with Divergent Topology” (PLoS ONE, 2016).
pKd: −log10 of the molar value. Like-named read-outs stand apart in the source and are kept apart here.

Experiments:
TpMglB-2 [1] = molecular target: T1, TpMglB-2 (Treponema pallidum, UniProt Q08255); test: Differential scanning fluorimetry (DSF) carbon-source screen; assay type: binding; settings: for binding in the DSF assay: qualitative; for shift in Tm, app: 10 μM protein, BIOLOG compounds, vs water control
T1 construct: the DNA fragment encoding amino acid residues 11–378 (cloned without the post-translationally modified N-terminal Cys); made in house; host or cells: E. coli BL21 AI (co-transformed with pGroESL)
T1 sequence (Q08255 36-403): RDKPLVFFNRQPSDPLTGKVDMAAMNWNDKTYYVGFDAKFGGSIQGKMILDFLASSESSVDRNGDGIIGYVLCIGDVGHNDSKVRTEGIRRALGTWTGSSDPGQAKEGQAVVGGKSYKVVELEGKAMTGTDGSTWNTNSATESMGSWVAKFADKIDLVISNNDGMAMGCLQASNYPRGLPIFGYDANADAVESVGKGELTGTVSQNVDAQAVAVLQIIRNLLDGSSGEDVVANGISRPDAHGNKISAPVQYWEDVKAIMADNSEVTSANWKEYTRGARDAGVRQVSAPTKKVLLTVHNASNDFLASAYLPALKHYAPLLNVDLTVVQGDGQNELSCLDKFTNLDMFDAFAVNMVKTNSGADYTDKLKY
Source text: The unconventional structural organization and the altered Ca^2+-binding site of TpMglB-2 provoked a question: does such a structurally rearranged LBP function similarly to other LBPs? To address this question, we first examined ligand binding. In a previous study on TpMglB-2, we reported that the protein preferred D-glucose and D-galactose over a small number of other monsaccharide carbon sources. However, we wished to interrogate a larger panel of such sources to investigate whether another ligand would bind to the protein with even higher affinity. We thus employed differential scanning fluorimetry (DSF) as a means to probe for ligand binding. This method examines the apparent melting temperature (Tm, app) of the protein; the “apparent” nomenclature is added in recognition of the fact that the reversibility of the transition was not tested in these experiments. Presumably, in the presence of a specifically bound ligand, the protein’s structure will be stabilized, resulting in a higher Tm, app. We used this plate-based method to qualitatively assay for the binding of 190 carbon sources. Only D-glucose and D-galactose caused significant shifts (> 1.5° C) in Tm, app (Fig 5). Thus, these were the only candidate compounds that were selected for additional study.
The thermal stability of TpMglB-2 in the presence of various putative ligands was determined in a 96-well PCR-plate (Bio-Rad Laboratories, Inc., Hercules, CA). The assumption was that binding ligands would enhance the thermal stability of the protein. For carbon-source screening, Biolog's Phenotype MicroArray (PM) compounds supplied in 96-well microplates (BIOLOG, Inc., Hayward, CA) were dissolved in 50 μL of sterile water to obtain a final concentration of around 10–20 mM. Screenings were performed with plates PM1 and PM2A. Each plate contains 95 compounds and a blank (no ligand) control. The complete plate contents are available at the BIOLOG website (www.biolog.com).
Each 20 μL standard assay mixture in a 96-well PCR-plate contained 10 μM purified protein and SYPRO Orange (Life Technologies) at 5x concentration in a buffer containing 10 mM phosphate, 100 mM NaCl, pH 7.4. Two μL of the resuspended BIOLOG compounds were added to each well. The plate was sealed and placed in a BioRad CFX96 real-time PCR detector coupled to a C1000 thermal cycler (BioRad Laboratories, Inc., Hercules, CA), and the fluorescence of the dye was monitored as a function of temperature from 4° C to 95° C. Fluorescence readings were recorded every 0.5° C. The data were transformed to–dF/dT v. T curves, and the abscissas of the minima in these curves were defined as the apparent melting temperatures (Tm, app). Significant positive shifts in Tm, app were taken as positive results and were confirmed using ITC.

[2] = molecular target: T2, TpMglB-2 (Tp0684), wild-type (Treponema pallidum, UniProt Q08255); test: Isothermal titration calorimetry (ITC) of sugars into wild-type TpMglB-2; assay type: binding; settings: for binding heats in ITC control titrations: wild-type TpMglB-2, qualitative
T2 construct: the DNA fragment encoding amino acid residues 11–378 (cloned without the post-translationally modified N-terminal Cys); made in house; host or cells: E. coli BL21 AI (co-transformed with pGroESL)
T2 sequence (Q08255 36-403): as above
Description: (§1) TpMglB-2 was dialyzed exhaustively against Assay Buffer (10 mM sodium phosphate, pH 7.4, 100 mM NaCl). The sugars to be titrated were dissolved in the same buffer. All titrations were carried out in an iTC200 calorimeter (Malvern, Malvern, UK). A typical titration scheme featured 19 or 20 2-μL injections of 500 μM of the monosaccharide into 50 μM protein in the ca. 200-μL stirred interaction cell. However, the concentrations were sometimes altered to sample a wider range of concentration space. Three titrations were performed per sugar, and the resulting thermograms were serially integrated using NITPIC v. 1.1.7 [54, 78]. All titrations for a given sugar were globally analyzed in ITCsy[55], and confidence intervals were obtained using the error-surface projection method. All ITC illustrations were rendered in GUSSI [79].

TpMglB-2 F313A = molecular target: T3, TpMglB-2 F313A (Treponema pallidum, UniProt Q08255, F338A); test: ITC of D-glucose into TpMglB-2 F313A variant; assay type: binding; design: key: NH: No observable heat of ligand binding
T3 construct: the DNA fragment encoding amino acid residues 11–378 (cloned without the post-translationally modified N-terminal Cys); made in house; host or cells: E. coli BL21 AI
T3 sequence (Q08255 36-403 F338A): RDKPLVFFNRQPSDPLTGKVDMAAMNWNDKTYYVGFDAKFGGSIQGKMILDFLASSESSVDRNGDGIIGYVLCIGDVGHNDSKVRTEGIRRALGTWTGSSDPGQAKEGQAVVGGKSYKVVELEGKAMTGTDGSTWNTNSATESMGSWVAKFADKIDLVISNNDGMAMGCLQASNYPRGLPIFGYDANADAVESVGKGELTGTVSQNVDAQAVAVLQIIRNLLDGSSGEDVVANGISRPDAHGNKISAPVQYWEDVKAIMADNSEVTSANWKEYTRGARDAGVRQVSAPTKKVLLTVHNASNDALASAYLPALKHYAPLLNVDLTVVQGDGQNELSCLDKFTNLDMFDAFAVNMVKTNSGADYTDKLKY
Description: (§2) For the construction of the recombinant TpMglB-2 variants, the N19A, W145A, D195A and F313A mutation was individually introduced into the plasmid carrying the wild-type tp0684 sequence using the QuikChange site-directed mutagenesis kit (Agilent Technologies, Santa Clara, CA). The mutation was confirmed by DNA sequencing. The mutant protein was expressed and purified as described above. Protein concentrations were determined in buffer A (20 mM Hepes, 0.1 M NaCl, pH 7.5, 2 mM n-Octyl-β-D-glucopyranoside) using spectrophotometry. Extinction coefficients were calculated using the Protparam tool of ExPASy (www.expasy.org).
as §1, with “All ITC illustrations were rendered in GUSSI [79].” left out

TpMglB-2 [3] = molecular target: T1, TpMglB-2
TpMglB-2 W145A = molecular target: T4, TpMglB-2 W145A (Treponema pallidum, UniProt Q08255, W170A); test: ITC of D-glucose into TpMglB-2 W145A variant; assay type: binding
T4 construct: the DNA fragment encoding amino acid residues 11–378 (cloned without the post-translationally modified N-terminal Cys); made in house; host or cells: E. coli BL21 AI
T4 sequence (Q08255 36-403 W170A): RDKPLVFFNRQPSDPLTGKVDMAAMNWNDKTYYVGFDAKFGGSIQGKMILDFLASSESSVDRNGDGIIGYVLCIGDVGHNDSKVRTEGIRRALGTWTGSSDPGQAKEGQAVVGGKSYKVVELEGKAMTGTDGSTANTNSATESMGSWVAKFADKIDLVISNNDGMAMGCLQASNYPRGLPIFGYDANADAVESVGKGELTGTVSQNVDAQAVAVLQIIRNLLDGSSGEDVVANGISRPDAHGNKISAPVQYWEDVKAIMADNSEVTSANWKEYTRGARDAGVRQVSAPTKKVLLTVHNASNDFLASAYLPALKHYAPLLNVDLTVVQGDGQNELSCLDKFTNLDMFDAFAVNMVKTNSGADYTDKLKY
Description: as §2
as §1, with “All ITC illustrations were rendered in GUSSI [79].” left out

TpMglB-2 [4] = molecular target: T1, TpMglB-2; test: Sedimentation velocity analytical ultracentrifugation (conventional SV); settings: 100 μM D-glucose, 20° C; 95% confidence interval in brackets; apo-TpMglB-2 3.212 S
Description: Our initial attempt to examine whether this small difference could be detected was conducted using conventional SV. In experiments carried out simultaneously, we sedimented apo-TpMglB-2 and also the protein in the presence of 100 μM D-glucose. By analyzing the data with a non-interacting discrete species model, we could perform a careful analysis using F-statistics that would establish realistic 95% confidence intervals (shown below in brackets) on the refined parameter s. For apo-TpMglB-2, the refined experimental s-value was 3.212 [3.204–3.219] S. The same value of the protein in the presence of D-glucose was 3.292 [3.288–3.297] S. We can estimate the statistical significance of this difference the F-statistic formalism. If we fix the s-value of the apo-protein to that of the liganded protein and repeat the analysis, we arrive at a χ^2 ratio between the two analyses of 1.86. […]
All AUC experiments were carried out at 20° C in a Beckman-Coulter Optima XL-I centrifuge (Beckman-Coulter Inc., Indianapolis, IN), and Assay Buffer was used in all cases. […] Centrifugation continued for about 16 h, and concentration-profile data were collected using both absorbance and interference optics. Data were initially analyzed using the c(s) method in SEDFIT [82, 83]. As warranted, data were also analyzed using a discrete-species model in SEDPHAT [62].

TpMglB-2 D195A = molecular target: T5, TpMglB-2 D195A (Treponema pallidum, UniProt Q08255, D220A); test: ITC of D-glucose into TpMglB-2 D195A variant; assay type: binding; design: key: NH: No observable heat of ligand binding
T5 construct: the DNA fragment encoding amino acid residues 11–378 (cloned without the post-translationally modified N-terminal Cys); made in house; host or cells: E. coli BL21 AI
T5 sequence (Q08255 36-403 D220A): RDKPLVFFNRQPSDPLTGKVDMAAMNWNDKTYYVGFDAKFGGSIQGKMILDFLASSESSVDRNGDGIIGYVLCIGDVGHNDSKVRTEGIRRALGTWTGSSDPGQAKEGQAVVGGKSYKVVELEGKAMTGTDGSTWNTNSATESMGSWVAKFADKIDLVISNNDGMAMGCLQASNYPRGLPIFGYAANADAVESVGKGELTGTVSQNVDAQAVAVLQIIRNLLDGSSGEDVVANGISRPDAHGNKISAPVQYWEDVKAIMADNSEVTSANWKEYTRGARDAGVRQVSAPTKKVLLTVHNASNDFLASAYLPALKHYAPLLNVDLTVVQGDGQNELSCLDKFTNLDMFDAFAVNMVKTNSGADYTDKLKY
Description: as §2
as §1, with “All ITC illustrations were rendered in GUSSI [79].” left out

TpMglB-2 [5] = molecular target: T1, TpMglB-2; test: Difference sedimentation velocity; settings: for Δs/s¯: 5 mg/mL TpMglB-2, 95% confidence interval in brackets
Description: Minute sedimentation-coefficient differences are readily detected using a method pioneered in H. Schachman’s lab called “difference sedimentation velocity” [64]. This method provides a direct, side-by-side comparison of the sedimentation velocity of two macromolecular solutes. In brief, two samples of 5 mg/mL TpMglB-2 were prepared. To one sample, a non-binding sugar, either D-mannose or D-ribose (these sugars evidenced no binding in neither the DSF nor ITC assays), was introduced, whereas an identical concentration of D-glucose was added to the other. The protein sample with the non-binding sugar was placed in the reference sector of a centrifugation centerpiece, and the sample sector of the same centerpiece was filled with the D-glucose-containing protein solution. Centrifugation was initiated, and Rayleigh laser interferometry was used to monitor the sedimentation. Because this mode of data collection reports on refractive-index differences between the two sectors, the difference between the sedimentation in the two sectors is recorded. This signal (for unequal solution-column heights) will appear roughly as a Gaussian-shaped curve inverted about the radial axis (Fig 8A). If the macromolecular solutes in each sector sediment at different rates, the absolute value of the area of (or, more specifically, the normalized first moment of) this curve will increase as sedimentation continues. This trend reports on the fractional sedimentation-coefficient difference between the solutes in the reference and sample sectors, termed Δs/s¯ , i.e. the change in s normalized by the mean s-value. […]
For difference SV studies, a slightly different protocol was followed. […] Sedimentation and sedimentation differences were monitored using the interference optics only; scans were obtained every 60 s for almost 17 h.
As presented by the data-acquisition software, interference data have the amount of fringe displacement, J, on the y-axis and the radius from the center of rotation on x-axis (r). In this case, of course, the difference in fringe displacement, ΔJ, was measured. […]

TpMglB-2 N19A = molecular target: T6, TpMglB-2 N19A (Treponema pallidum, UniProt Q08255, N44A); test: ITC of D-glucose into TpMglB-2 N19A variant; assay type: binding; design: key: NH: No observable heat of ligand binding
T6 construct: the DNA fragment encoding amino acid residues 11–378 (cloned without the post-translationally modified N-terminal Cys); made in house; host or cells: E. coli BL21 AI
T6 sequence (Q08255 36-403 N44A): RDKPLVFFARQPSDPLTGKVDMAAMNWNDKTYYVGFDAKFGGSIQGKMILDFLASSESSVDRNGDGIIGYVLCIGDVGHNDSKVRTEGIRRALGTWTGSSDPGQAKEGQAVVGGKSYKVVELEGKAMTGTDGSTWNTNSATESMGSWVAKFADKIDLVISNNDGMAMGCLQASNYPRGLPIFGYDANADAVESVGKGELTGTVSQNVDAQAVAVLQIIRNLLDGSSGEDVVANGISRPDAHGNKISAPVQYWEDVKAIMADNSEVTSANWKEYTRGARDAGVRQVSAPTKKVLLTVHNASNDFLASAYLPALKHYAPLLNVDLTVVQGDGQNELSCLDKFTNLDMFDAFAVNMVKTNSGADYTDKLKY
Description: as §2
as §1, with “All ITC illustrations were rendered in GUSSI [79].” left out

O=C[C@H](O)[C@H](O)[C@H](O)CO [D-ribose, reference compound]
binding in the DSF assay (TpMglB-2 [1]): failed to bind | binding heats in ITC control titrations [2]: failed to exhibit any binding heats

OC[C@H]1OC(O)[C@@H](O)[C@@H](O)[C@@H]1O (stereo partly drawn) [D-Mannose, reference compound]
binding in the DSF assay (TpMglB-2 [1]): failed to bind | binding heats in ITC control titrations [2]: failed to exhibit any binding heats

OC[C@H]1OC(O)[C@H](O)[C@@H](O)[C@@H]1O (stereo partly drawn) [D-glucose]
KD (TpMglB-2 F313A): NH | pKd (TpMglB-2 [3]; similar TpMglB-2 construct, 20 mM NaCl; read-out: equilibrium dissociation constant; cited from earlier work): 6.82 | KD for glucose binding of W145A relative to the wild-type protein (TpMglB-2 W145A): tenfold higher | pKd (TpMglB-2 W145A; W145A variant, 68.3% confidence intervals in brackets): 4.90 | refined experimental s-value of TpMglB-2 in the presence of the sugar (TpMglB-2 [4]): 3.292 [3.288–3.297] S | KD (TpMglB-2 D195A): NH | Δs/s¯ (TpMglB-2 [5]; D-glucose in sample sector vs D-mannose in reference sector): about 0.0177 [0.0163, 0.0191] | Δs/s¯ (TpMglB-2 [5]; D-glucose in sample sector vs D-ribose in reference sector): 0.0180 [0.0163, 0.0197] | observed change in s (Δs/s¯ multiplied by the observed s, 3.2 S) (TpMglB-2 [5]; D-glucose vs non-binding sugar): approximately 0.06 S | KD (TpMglB-2 N19A): NH^b | shift in Tm, app (TpMglB-2 [1]): > 1.5 °C | pKd ([2]; wild-type TpMglB-2, 10 mM sodium phosphate pH 7.4, 100 mM NaCl, 68.3% confidence intervals in brackets): 5.96

O=C[C@H](O)[C@@H](O)[C@@H](O)[C@H](O)CO [D-galactose]
pKd (TpMglB-2 [3]; read-out: equilibrium dissociation constant; similar TpMglB-2 construct, 20 mM NaCl; cited from earlier work): 6.60 | shift in Tm, app (TpMglB-2 [1]): > 1.5 °C | KD for D-galactose relative to that of D-glucose ([2]; wild-type TpMglB-2): 30 fold
